From ChEMBL document CHEMBL1201862, “PubChem BioAssay data set” (2004)
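Interpolation was linear, between the two tested concentrations surrounding the appropriate level; five concentrations were tested over 48 hours in 96-well plates. GI50 marks 50% less growth.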 Active and inactive are the calls of the source. Cut-off read from the data, not from the text of the source: active = GI50 up to about 1.1 µM and inactive = higher.

Experiments:
Assay in all cases: NCI-60 cell line screen, 48 h
RXF 393 = tested on: RXF 393
HCT-116 = tested on: HCT-116
PC-3 = tested on: PC-3
CAKI-1 = tested on: CAKI-1
NCI/ADR-RES = tested on: NCI/ADR-RES
SN12C = tested on: SN12C
TK-10 = tested on: TK-10
786-0 = tested on: 786-0
OVCAR-5 = tested on: OVCAR-5
SF-268 = tested on: SF-268
ACHN = tested on: ACHN
MDA-N = tested on: MDA-N
A498 = tested on: A498
SR = tested on: SR
NCI-H23 = tested on: NCI-H23
SK-MEL-2 = tested on: SK-MEL-2
MDA-MB-435 = tested on: MDA-MB-435
T47D = tested on: T47D
Hs-578T = tested on: Hs-578T
K562 = tested on: K562
DU-145 = tested on: DU-145
RPMI-8226 = tested on: RPMI-8226
LOX IMVI = tested on: LOX IMVI
HCT-15 = tested on: HCT-15
UACC-257 = tested on: UACC-257
SK-MEL-5 = tested on: SK-MEL-5
NCI-H522 = tested on: NCI-H522
CCRF-CEM = tested on: CCRF-CEM
HCC 2998 = tested on: HCC 2998
SW-620 = tested on: SW-620
SNB-19 = tested on: SNB-19
SF-295 = tested on: SF-295
NCI-H226 = tested on: NCI-H226
MOLT-4 = tested on: MOLT-4
HT-29 = tested on: HT-29
SF-539 = tested on: SF-539
SNB-75 = tested on: SNB-75
COLO 205 = tested on: COLO 205
KM12 = tested on: KM12
OVCAR-4 = tested on: OVCAR-4
Malme-3M = tested on: Malme-3M
UACC-62 = tested on: UACC-62
U-251 = tested on: U-251
SK-OV-3 = tested on: SK-OV-3
IGROV-1 = tested on: IGROV-1
HL-60 = tested on: HL-60
OVCAR-8 = tested on: OVCAR-8
HOP-62 = tested on: HOP-62
NCI-H460 = tested on: NCI-H460
EKVX = tested on: EKVX
A549 = tested on: A549
SK-MEL-28 = tested on: SK-MEL-28
UO-31 = tested on: UO-31
MCF7 = tested on: MCF7
OVCAR-3 = tested on: OVCAR-3
MDA-MB-231 = tested on: MDA-MB-231
HOP-92 = tested on: HOP-92
M14 = tested on: M14

SMILES: Cc1cc(C[C@H]2O[C@@H]3OC(C)(C)O[C@@H]3[C@H]3OC(C)(C)O[C@H]32)c2ccccc2n1
- GI50 (RXF 393): 39.1 µM (inactive)
- GI50 (HCT-116): 72.6 µM (inactive)
- GI50 (PC-3): 40.1 µM (inactive)
- GI50 (CAKI-1): 56.6 µM (inactive)
- GI50 (NCI/ADR-RES): 34 µM (inactive)
- GI50 (SN12C): > 100 µM (inactive)
- GI50 (TK-10): > 100 µM (inactive)
- GI50 (786-0): > 100 µM (inactive)
- GI50 (OVCAR-5): > 100 µM (inactive)
- GI50 (SF-268): > 100 µM (inactive)
- GI50 (ACHN): > 100 µM (inactive)
- GI50 (MDA-N): 41.3 µM (inactive)
- GI50 (A498): > 100 µM (inactive)
- GI50 (SR): 34.8 µM (inactive)
- GI50 (NCI-H23): 52.7 µM (inactive)
- GI50 (SK-MEL-2): 36 µM (inactive)
- GI50 (MDA-MB-435): > 100 µM (inactive)
- GI50 (T47D): 63.5 µM (inactive)
- GI50 (Hs-578T): 26.4 µM (inactive)
- GI50 (K562): 48.1 µM (inactive)
- GI50 (DU-145): > 100 µM (inactive)
- GI50 (RPMI-8226): 27.1 µM (inactive)
- GI50 (LOX IMVI): > 100 µM (inactive)
- GI50 (HCT-15): 76.4 µM
- GI50 (UACC-257): > 100 µM (inactive)
- GI50 (SK-MEL-5): 55.6 µM (inactive)
- GI50 (NCI-H522): 16 µM (inactive)
- GI50 (CCRF-CEM): 42.1 µM (inactive)
- GI50 (HCC 2998): > 100 µM (inactive)
- GI50 (SW-620): > 100 µM (inactive)
- GI50 (SNB-19): > 100 µM (inactive)
- GI50 (SF-295): > 100 µM (inactive)
- GI50 (NCI-H226): 55.3 µM (inactive)
- GI50 (MOLT-4): 31.8 µM (inactive)
- GI50 (HT-29): > 100 µM (inactive)
- GI50 (SF-539): > 100 µM (inactive)
- GI50 (SNB-75): > 100 µM (inactive)
- GI50 (COLO 205): > 100 µM (inactive)
- GI50 (KM12): 54.8 µM (inactive)
- GI50 (OVCAR-4): > 100 µM (inactive)
- GI50 (Malme-3M): 64.9 µM (inactive)
- GI50 (UACC-62): > 100 µM (inactive)
- GI50 (U-251): > 100 µM (inactive)
- GI50 (SK-OV-3): > 100 µM (inactive)
- GI50 (IGROV-1): 49.8 µM (inactive)
- GI50 (HL-60): 27.5 µM (inactive)
- GI50 (OVCAR-8): 43.1 µM (inactive)
- GI50 (HOP-62): 55.3 µM (inactive)
- GI50 (NCI-H460): 30 µM (inactive)
- GI50 (EKVX): 79.6 µM (inactive)
- GI50 (A549): 63.4 µM (inactive)
- GI50 (SK-MEL-28): > 100 µM (inactive)
- GI50 (UO-31): 33.3 µM (inactive)

SMILES: c1csc(-c2nccc3c2[nH]c2ccccc23)c1
- GI50 (RXF 393): 16.3 µM (inactive)
- GI50 (HCT-116): 16.3 µM (inactive)
- GI50 (PC-3): 21.6 µM (inactive)
- GI50 (CAKI-1): 27.4 µM (inactive)
- GI50 (NCI/ADR-RES): 22.2 µM (inactive)
- GI50 (SN12C): 16.8 µM (inactive)
- GI50 (TK-10): 21.1 µM (inactive)
- GI50 (786-0): 18.1 µM (inactive)
- GI50 (OVCAR-5): 28.2 µM (inactive)
- GI50 (SF-268): 27 µM (inactive)
- GI50 (ACHN): 24.5 µM (inactive)
- GI50 (MCF7): 3.35 µM (inactive)
- GI50 (MDA-N): 17.5 µM (inactive)
- GI50 (A498): 15.3 µM (inactive)
- GI50 (SR): 21 µM (inactive)
- GI50 (NCI-H23): 18.7 µM (inactive)
- GI50 (SK-MEL-2): 21.8 µM (inactive)
- GI50 (OVCAR-3): 20.5 µM (inactive)
- GI50 (MDA-MB-435): 18.3 µM (inactive)
- GI50 (T47D): 11.8 µM (inactive)
- GI50 (Hs-578T): 46 µM (inactive)
- GI50 (K562): 25.6 µM (inactive)
- GI50 (DU-145): 27.9 µM (inactive)
- GI50 (LOX IMVI): 20.5 µM (inactive)
- GI50 (HCT-15): 20.4 µM
- GI50 (UACC-257): 21.2 µM (inactive)
- GI50 (SK-MEL-5): 16.7 µM (inactive)
- GI50 (NCI-H522): 15.8 µM (inactive)
- GI50 (CCRF-CEM): 21.2 µM (inactive)
- GI50 (HCC 2998): 21.8 µM (inactive)
- GI50 (SW-620): 21 µM (inactive)
- GI50 (SNB-19): 27.7 µM (inactive)
- GI50 (SF-295): 16.1 µM (inactive)
- GI50 (NCI-H226): 12 µM (inactive)
- GI50 (MOLT-4): 22.2 µM (inactive)
- GI50 (HT-29): 15.1 µM (inactive)
- GI50 (SF-539): 16.4 µM (inactive)
- GI50 (SNB-75): 14.1 µM (inactive)
- GI50 (COLO 205): 14.8 µM (inactive)
- GI50 (KM12): 19.5 µM (inactive)
- GI50 (OVCAR-4): 18.2 µM (inactive)
- GI50 (Malme-3M): 24.2 µM (inactive)
- GI50 (UACC-62): 30.2 µM (inactive)
- GI50 (MDA-MB-231): 20.6 µM (inactive)
- GI50 (U-251): 25.4 µM (inactive)
- GI50 (SK-OV-3): 14.2 µM (inactive)
- GI50 (IGROV-1): 18.4 µM (inactive)
- GI50 (HL-60): 29.3 µM (inactive)
- GI50 (OVCAR-8): 20.5 µM (inactive)
- GI50 (HOP-62): 18.3 µM (inactive)
- GI50 (NCI-H460): 23.9 µM (inactive)
- GI50 (EKVX): 46.6 µM (inactive)
- GI50 (A549): 18.5 µM (inactive)
- GI50 (HOP-92): 22.3 µM (inactive)
- GI50 (SK-MEL-28): 25.6 µM (inactive)
- GI50 (M14): 17.8 µM (inactive)
